Laboratory results as given in patent publication US8445502B2, “Pharmaceutical formulations comprising salts of a protein kinase inhibitor and methods of using same” (Astex Pharmaceuticals, Inc., priority 2007, dated 2013).

Assays:
[1] = system: SB-CL2 melanoma cells; test: SB-CL2 melanoma tumor model in athymic nude mice; assay type: in vivo; conditions: IP 50 & 75 mg/kg, qd × 5, TV-10
Protocol: MP470 and MP470 HCl were tested against different tumor types in athymic nude mice as summarized below (Table 8). Various formulations and routes were evaluated. HT-29 colorectal cancer cells and SB-CL2 melanoma cells were implanted subcutaneously, while A549 lung cancer cells, MiaPaCa-2 pancreatic cancer cells, TT medullary thyroid cancer cells, and OVCAR-3 ovarian cancer cells were implanted […] in the hind flank of mice. All animals were allowed to develop medium-sized (80-125 mg) tumors, before initiation of dosing. Tumor volume and mouse bodyweight were followed over the course of the study.

[2] = system: Rad51 in cancer cell lines; test: Rad51 Western blot after ionizing radiation; assay type: cell-based; conditions: cells pretreated with MP470
Source text: Similar to IR, the sensitivity of cancer cells to platinum-based drugs can be affected by the level of Rad51 protein.

[3] = Acute intravenous toxicity in rat, second study; assay type: in vivo; conditions: single intravenous dose
Protocol: In the second IV administration study of MP470 free base, six groups of 6 rats were to be exposed to either vehicle alone or MP470 at 0.625, 1.25, 2.5, 5, or 10 mg/kg. Dosing was administered via a tail vein over approximately 30 minutes. Animals in each group were given a single intravenous dose of the test substance. Animals in the lowest dose group were dosed first, followed by at least a 10 minute period to observe any effects. If no effects were observed or if effects were observed but deemed acceptable the dosing went to the next highest dose using the same progression criteria. Progression was stopped when unacceptable, adverse effects (e.g., severe convulsions or death) occurred or when the highest dose was successfully administered without adverse effects. A control group (formulation vehicle: TV-13) was included for relevant comparison. […] Dosing occurred on Day 0 and termination on Day 4. On Day 4, the animals were sacrificed and subjected to complete, documented, gross necropsy.
Mortality (50%) occurred in the high dose group (10 mg/kg). […] Under the conditions of this study, a maximum tolerated acute dose in the rat for MP470 was determined to be 5 mg/kg. However, a ‘no observable adverse effect level’ could not be determined due to adverse observations apparently associated with vehicle administration.

[4] = target: Flt3 (D835Y) (h) (Homo sapiens, UniProt P36888, D835Y); test: Mutant kinase IC50 screen; assay type: biochemical
Protocol: (§1) IC50 values for MP470.HCl were determined for four mutant c-Kit kinases, one mutant Flt3 kinase, and two mutant PDGFRα kinases.

[5] = target: PDGFRα (D842V) (h) (Homo sapiens, UniProt P16234, D842V); test: Mutant kinase IC50 screen; assay type: biochemical
Protocol: as §1

[6] = target: PDGFRα (V561D) (h) (Homo sapiens, UniProt P16234, V561D); test: Mutant kinase IC50 screen; assay type: biochemical
Protocol: as §1

[7] = target: cKit (D816H) (h) (Homo sapiens, UniProt P10721, D816H); test: Mutant kinase IC50 screen; assay type: biochemical
Protocol: as §1

[8] = target: cKit (D816V) (h) (Homo sapiens, UniProt P10721, D816V); test: Mutant kinase IC50 screen; assay type: biochemical
Protocol: as §1

[9] = target: cKit (V560G) (h) (Homo sapiens, UniProt P10721, V560G); test: Mutant kinase IC50 screen; assay type: biochemical
Protocol: as §1

[10] = target: cKit (V654A) (h) (Homo sapiens, UniProt P10721, V654A); test: Mutant kinase IC50 screen; assay type: biochemical
Protocol: as §1

[11] = system: DMS-153 SCLC cells; test: Sensitization of SCLC cells to etoposide; assay type: cell-based; conditions: Homo sapiens; DMS-153, single agent
Protocol: Therefore, to determine if MP470 would increase sensitivity to etoposide treatment, SCLC cells were treated with the agents individually and in combination. […] Two sub-IC50 doses of MP470.HCl were tested in combination with etoposide to evaluate possible synergism and a resulting lower IC50 value for etoposide in each of the cell lines.

[12] = system: Rad51; test: Rad51 immunohistochemistry in dog colon and skin; assay type: in vivo; conditions: for Rad 51 Result: 2 wk post treatment with 300 mg/kg/day × 28, dog 302786
Protocol: A study was performed to develop a testing procedure for validation of IHC Biomarker RAD51 for the staining of tissue micro arrays (TMA). An experimental […] antibody was used (Spring Bioscience Anti-RAD51) and run using testis and lung as control tissues. The antibody was run using the Dako Envision+ detection kit. The incubation times ranged from 15 minutes to 60 minutes. Each experiment was run with and without an antigen retrieval solution with a pH of 6.0. The dilutions used for the Spring Bioscience Anti-RAD51 ranged from 1:50 to 1:500. The best results were obtained when incubated for 30 minutes, with a dilution of 1:50, using the Dako Envision+ detection kit, with antigen retrieval at the pH of 6.0 based on manual scoring by a board certified pathologist. […] Rare nuclear staining was observed.
A study was conducted to investigate the changes in RAD51 expression levels after chronic treatment with MP470 hydrochloride salt two weeks post treatment with oral once daily dosing for 28 days at 300 mg/kg compared to the control (vehicle only, no drug) to healthy dogs. Tissue specimens from the colon and skin were analyzed for RAD51 expression using the procedure described above. The data in Table 9 confirm that MP470.HCl suppresses and sustains the suppression of RAD51 expression levels in normal proliferating tissues such as in colon and skin.
Dose-response effects of MP470.HCl on Rad51 were evaluated in normal beagle dogs that were administered MP470.HCl orally. Colon and skin tissues were obtained from five different groups, including vehicle control group, three groups of differing dose levels of MP470.HCl following a 28 day daily treatment with MP470.HCl, and a post-treatment recovery group two weeks after treatment daily for 28 days with 300 mg/kg of MP470.HCl. These tissue specimens were stained for Rad51 using immunohistochemistry (IHC) techniques on an automated staining platform. A mouse Anti-Rad51 antibody was used for this purpose. Positive and negative controls were used to validate the staining procedure. The data is reported as a percentage based on the scoring of the staining intensity by a board-certified pathologist. Staining intensity was reported as mean percent for n=3 in all cases except the recovery group, where n=1.

Sequence of PDGFRα (V561D) (h) (P16234 24-1089 V561D): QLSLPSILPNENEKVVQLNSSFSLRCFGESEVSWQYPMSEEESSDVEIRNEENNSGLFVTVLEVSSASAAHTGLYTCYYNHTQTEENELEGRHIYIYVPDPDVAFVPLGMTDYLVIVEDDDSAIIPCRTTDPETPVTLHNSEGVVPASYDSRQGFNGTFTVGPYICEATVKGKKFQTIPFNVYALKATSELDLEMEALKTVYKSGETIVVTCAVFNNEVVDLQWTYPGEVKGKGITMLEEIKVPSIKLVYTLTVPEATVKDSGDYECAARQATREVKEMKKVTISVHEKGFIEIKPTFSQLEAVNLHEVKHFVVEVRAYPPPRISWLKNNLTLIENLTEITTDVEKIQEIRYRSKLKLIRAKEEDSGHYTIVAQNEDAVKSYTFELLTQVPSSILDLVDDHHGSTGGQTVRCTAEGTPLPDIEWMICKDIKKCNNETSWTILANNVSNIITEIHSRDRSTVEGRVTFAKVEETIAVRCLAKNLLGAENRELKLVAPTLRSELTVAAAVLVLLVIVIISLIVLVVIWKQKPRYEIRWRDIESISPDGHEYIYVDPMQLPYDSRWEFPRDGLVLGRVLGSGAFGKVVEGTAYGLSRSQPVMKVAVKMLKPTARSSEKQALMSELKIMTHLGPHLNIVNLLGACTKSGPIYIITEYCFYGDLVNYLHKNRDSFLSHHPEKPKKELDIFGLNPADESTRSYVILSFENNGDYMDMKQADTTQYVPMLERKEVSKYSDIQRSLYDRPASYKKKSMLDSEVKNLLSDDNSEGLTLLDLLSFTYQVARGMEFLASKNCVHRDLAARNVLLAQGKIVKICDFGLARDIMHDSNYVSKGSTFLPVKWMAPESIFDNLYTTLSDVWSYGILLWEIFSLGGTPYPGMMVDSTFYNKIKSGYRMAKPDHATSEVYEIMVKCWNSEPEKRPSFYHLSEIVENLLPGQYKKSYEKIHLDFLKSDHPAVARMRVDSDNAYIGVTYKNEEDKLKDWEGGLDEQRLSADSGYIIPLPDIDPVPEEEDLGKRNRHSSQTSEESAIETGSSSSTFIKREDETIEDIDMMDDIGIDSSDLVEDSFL
Sequence of PDGFRα (D842V) (h) (P16234 24-1089 D842V): as the sequence (P16234 24-1089 V561D) above, with D538V, D819V counted along it
Sequence of cKit (D816V) (h) (P10721 26-976 D816V): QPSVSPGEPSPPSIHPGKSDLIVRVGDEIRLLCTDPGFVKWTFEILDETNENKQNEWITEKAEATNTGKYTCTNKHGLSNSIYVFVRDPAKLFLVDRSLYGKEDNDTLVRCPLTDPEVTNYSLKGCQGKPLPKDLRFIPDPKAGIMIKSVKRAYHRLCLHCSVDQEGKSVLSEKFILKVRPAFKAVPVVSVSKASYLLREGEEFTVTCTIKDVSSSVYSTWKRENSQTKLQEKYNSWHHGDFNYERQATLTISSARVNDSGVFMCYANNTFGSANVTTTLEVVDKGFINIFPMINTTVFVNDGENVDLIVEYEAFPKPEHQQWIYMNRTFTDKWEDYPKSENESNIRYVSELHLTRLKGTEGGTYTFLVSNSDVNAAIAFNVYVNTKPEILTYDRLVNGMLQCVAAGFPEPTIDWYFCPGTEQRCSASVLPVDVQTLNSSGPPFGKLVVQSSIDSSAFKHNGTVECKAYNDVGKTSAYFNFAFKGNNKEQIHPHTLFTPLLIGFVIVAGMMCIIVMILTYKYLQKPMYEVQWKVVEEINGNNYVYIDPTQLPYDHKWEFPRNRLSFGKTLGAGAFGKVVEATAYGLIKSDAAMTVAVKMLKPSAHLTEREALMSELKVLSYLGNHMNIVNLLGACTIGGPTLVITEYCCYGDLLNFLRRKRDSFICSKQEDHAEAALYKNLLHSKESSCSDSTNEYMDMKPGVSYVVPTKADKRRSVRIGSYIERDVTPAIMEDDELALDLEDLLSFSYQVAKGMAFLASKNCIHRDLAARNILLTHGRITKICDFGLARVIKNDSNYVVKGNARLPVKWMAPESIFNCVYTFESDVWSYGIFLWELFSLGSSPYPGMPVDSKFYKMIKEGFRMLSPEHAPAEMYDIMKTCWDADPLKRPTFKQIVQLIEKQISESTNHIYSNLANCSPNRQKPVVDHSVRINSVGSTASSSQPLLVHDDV
Sequence of cKit (V654A) (h) (P10721 26-976 V654A): as the sequence (P10721 26-976 D816V) above, with V629A, V791D counted along it
Sequence of cKit (D816H) (h) (P10721 26-976 D816H): as the sequence (P10721 26-976 D816V) above, with V791H counted along it
Sequence of cKit (V560G) (h) (P10721 26-976 V560G): as the sequence (P10721 26-976 D816V) above, with V535G, V791D counted along it

SMILES: S=C(NCc1ccc2c(c1)OCO2)N1CCN(c2ncnc3c2oc2ccccc23)CC1 [MP470, 4-[1]benzofuro[3,2-d]pyrimidin-4-yl-N-(1,3-benzodioxol-5-ylmethyl)piperazine-1-carbothioamide]
- Outcome: tumor growth [1]: Dose dependency
- Rad51 protein level after ionizing radiation [2]: Rad51 remained near control levels even after exposure to IR
- maximum tolerated acute dose [3]: 5 mg/kg

SMILES: Cl.S=C(NCc1ccc2c(c1)OCO2)N1CCN(c2ncnc3c2oc2ccccc23)CC1 [MP470.HCl, 4-[1]benzofuro[3,2-d]pyrimidin-4-yl-N-(1,3-benzodioxol-5-ylmethyl)piperazine-1-carbothioamide hydrochloride]
- IC50 [4]: 8.05 µM
- IC50 [5]: 0.081 µM
- IC50 [6]: 0.04 µM
- IC50 [7]: 0.01 µM
- IC50 [8]: 0.95 µM
- IC50 [9]: 0.034 µM
- IC50 [10]: 0.127 µM
- IC50 [11]: 5140 nM
- Rad51 staining Skin (%) ([12]; 30 mg/Kg oral daily 28 days, n=3 (vehicle 20)): 14%
- Rad51 staining Colon (%) ([12]; 30 mg/Kg oral daily 28 days, n=3 (vehicle 71)): 61%
- Rad51 staining Skin (%) ([12]; 100 mg/Kg oral daily 28 days, n=3 (vehicle 20)): 17%
- Rad51 staining Colon (%) ([12]; 100 mg/Kg oral daily 28 days, n=3 (vehicle 71)): 56%
- Rad51 staining Skin (%) ([12]; 300 mg/Kg oral daily 28 days, n=3 (vehicle 20)): 11%
- Rad51 staining Colon (%) ([12]; 300 mg/Kg oral daily 28 days, n=3 (vehicle 71)): 35%
- suppression of Rad51 in tissues of dogs ([12]; 30, 100, 300 mg/kg oral daily 28 days): dose-dependent suppression of Rad51
- Rad 51 Result ([12]; Colon): 58%
- Rad51 staining Skin (%) ([12]; Recovery (2 wk post treatment with 300 mg/kg), n=1 (vehicle 20)): 7%
- Rad51 staining Colon (%) ([12]; Recovery (2 wk post treatment with 300 mg/kg), n=1 (vehicle 71)): 19%
- Rad 51 Result ([12]; Skin): 12%
